Measured values taken from patent US11331369B2, “Endoparasitic depsipeptides” (Zoetis Services LLC, priority 2017, dated 2022).

Columns and labels:
[1] = system: microfilariae of Dirofilaria immitis; assay: Dirofilaria immitis, Microfilaria (DiMF) In vitro Assay; format: cell-based; conditions: 72 h, read-out: DiMF Minimum Effective Dose (MED), approximately 72 hours incubation, microfilariae assessed for survival or paralysis
[2] = system: 4th stage larvae (L4) of Dirofilaria immitis; assay: Dirofilaria immitis, L4 Stage (DiL4) In Vitro Assay; format: cell-based; conditions: Dirofilaria immitis, 72 h, read-out: DiL4 Minimum Effective Dose (MED), approximately 72 hours incubation; L4 larvae assessed for survival or paralysis

SMILES | minimal effective concentration [1] | minimal effective concentration [2]
Cc1nn(Cc2ccc(C[C@H]3OC(=O)[C@H](CC(C)C)N(C)C(=O)[C@@H](C)OC(=O)[C@H](CC(C)C)N(C)C(=O)[C@@H](Cc4ccc(Cn5ncc(OC(C)C)c5C)cc4)OC(=O)[C@H](CC(C)C)N(C)C(=O)[C@@H](C)OC(=O)[C@H](CC(C)C)N(C)C3=O)cc2)cc1OC(C)C [Example 1a-39, (3S,6R,9S,12R,15S,18R,21S,24R)-3,9,15,21-tetraisobutyl-6-[[4-[(4-isopropoxy-3-methyl-pyrazol-1-yl)methyl]phenyl]methyl]-18-[[4-[(4-isopropoxy-5-methyl-pyrazol-1-yl)methyl]phenyl]methyl]-4,10,12,16,22,24-hexamethyl-1,7,13,19-tetraoxa-4,10,16,22-tetrazacyclotetracosane-2,5,8,11,14,17,20,23-octaone] | 0.01 to 0.1 µM | 0.001 to 0.01 µM
CC(C)C#Cc1cnn(Cc2ccc(C[C@H]3OC(=O)[C@H](CC(C)C)N(C)C(=O)[C@@H](C)OC(=O)[C@H](CC(C)C)N(C)C(=O)[C@@H](Cc4ccc(Cn5cc(C#CC(C)C)cn5)cc4)OC(=O)[C@H](CC(C)C)N(C)C(=O)[C@@H](C)OC(=O)[C@H](CC(C)C)N(C)C3=O)cc2)c1 [Example 1b-112, (3S,6R,9S,12R,15S,18R,21S,24R)-3,9,15,21-tetraisobutyl-4,6,10,16,18,22-hexamethyl-12,24-bis(4-((4-(3-methylbut-1-yn-1-yl)-1H-pyrazol-1-yl)methyl)benzyl)-1,7,13,19-tetraoxa-4,10,16,22-tetraazacyclotetracosan-2,5,8,11,14,17,20,23-octaone] | 0.01 to 0.1 µM | 0.0001 to 0.001 µM
CC(C)C[C@H]1C(=O)O[C@H](Cc2ccc(Cn3cc(C#CC4CC4)cn3)cc2)C(=O)N(C)[C@@H](CC(C)C)C(=O)O[C@H](C)C(=O)N(C)[C@@H](CC(C)C)C(=O)O[C@H](Cc2ccc(Cn3cc(C#CC4CC4)cn3)cc2)C(=O)N(C)[C@@H](CC(C)C)C(=O)O[C@H](C)C(=O)N1C [Example 1b-113, (3S,6R,9S,12R,15S,18R,21S,24R)-6,18-bis(4-((4-(cyclopropylethynyl)-1H-pyrazol-1-yl)methyl)benzyl)-3,9,15,21-tetraisobutyl-4, 10,12,16,22,24-hexamethyl-1,7,13,19-tetraoxa-4,10,16,22-tetraazacyclotetracosan-2,5,8,11,14,17,20,23-octaone] | 0.01 to 0.1 µM | 0.0001 to 0.001 µM
CC(C)C[C@H]1C(=O)O[C@H](Cc2ccc(Cn3nccc3-c3ccccc3)cc2)C(=O)N(C)[C@@H](CC(C)C)C(=O)O[C@H](C)C(=O)N(C)[C@@H](CC(C)C)C(=O)O[C@H](Cc2ccc(Cn3nccc3-c3ccccc3)cc2)C(=O)N(C)[C@@H](CC(C)C)C(=O)O[C@H](C)C(=O)N1C [Example 1b-128, (3S,6R,9S,12R,15S,18R,21S,24R)-3,9,15,21-tetraisobutyl-4,6,10,16,18,22-hexamethyl-12,24-bis(4-((5-phenyl-1H-pyrazol-1-yl)methyl)benzyl)-1,7,13,19-tetraoxa-4,10,16,22-tetraazacyclotetracosan-2,5,8,11,14,17,20,23-octaone] | 0.01 to 0.1 µM | 0.001 to 0.01 µM
COc1ccc(-c2ccnn2Cc2ccc(C[C@H]3OC(=O)[C@H](CC(C)C)N(C)C(=O)[C@@H](C)OC(=O)[C@H](CC(C)C)N(C)C(=O)[C@@H](Cc4ccc(Cn5nccc5-c5ccc(OC)cc5)cc4)OC(=O)[C@H](CC(C)C)N(C)C(=O)[C@@H](C)OC(=O)[C@H](CC(C)C)N(C)C3=O)cc2)cc1 [Example 1b-149, (3S,6R,9S,12R,15S,18R,21S,24R)-3,9,15,21-tetraisobutyl-6,18-bis(4-((5-(4-methoxyphenyl)-1H-pyrazol-1-yl)methyl)benzyl)-4,10,12,16,22,24-hexamethyl-1,7,13,19-tetraoxa-4,10,16,22-tetraazacyclotetracosan-2,5,8,11,14,17,20,23-octaone] | 0.01 to 0.1 µM | 0.001 to 0.01 µM
CC(C)C[C@H]1C(=O)O[C@H](Cc2ccc(Cn3cc(OCC(F)(F)F)cn3)cc2)C(=O)N(C)[C@@H](CC(C)C)C(=O)O[C@H](C)C(=O)N(C)[C@@H](CC(C)C)C(=O)O[C@H](Cc2ccc(Cn3cc(OCC(F)(F)F)cn3)cc2)C(=O)N(C)[C@@H](CC(C)C)C(=O)O[C@H](C)C(=O)N1C [Example 1b-150, (3S,6R,9S,12R,15S,18R,21S,24R)-3,9,15,21-tetraisobutyl-4,6,10,16,18,22-hexamethyl-12,24-bis(4-((4-(2,2,2-trifluoroethoxy)-1H-pyrazol-1-yl)methyl)benzyl)-1,7,13,19-tetraoxa-4,10,16,22-tetraazacyclotetracosan-2,5,8,11,14,17,20,23-octaone] | 0.001 to 0.01 µM | 0.0001 to 0.001 µM
Cc1cnn(Cc2ccc(C[C@H]3OC(=O)[C@H](CC(C)C)N(C)C(=O)[C@@H](C)OC(=O)[C@H](CC(C)C)N(C)C(=O)[C@@H](Cc4ccc(Cn5ncc(C)c5C)cc4)OC(=O)[C@H](CC(C)C)N(C)C(=O)[C@@H](C)OC(=O)[C@H](CC(C)C)N(C)C3=O)cc2)c1C [Example 1b-152, (3S,6R,9S,12R,15S,18R,21S,24R)-6,18-bis(4-((4,5-dimethyl-1H-pyrazol-1-yl)methyl)benzyl)-3,9,15,21-tetraisobutyl-4,10,12,16,22,24-hexamethyl-1,7,13,19-tetraoxa-4,10,16,22-tetraazacyclotetracosan-2,5,8,11,14,17,20,23-octaone] | 0.001 to 0.01 µM | 0.001 to 0.01 µM
CC(C)C[C@H]1C(=O)O[C@H](Cc2ccc(Cn3nccc3C3CCCC3)cc2)C(=O)N(C)[C@@H](CC(C)C)C(=O)O[C@H](C)C(=O)N(C)[C@@H](CC(C)C)C(=O)O[C@H](Cc2ccc(Cn3nccc3C3CCCC3)cc2)C(=O)N(C)[C@@H](CC(C)C)C(=O)O[C@H](C)C(=O)N1C [Example 1b-154, (3S,6R,9S,12R,15S,18R,21S,24R)-6,18-bis(4-((5-cyclopentyl-1H-pyrazol-1-yl)methyl)benzyl)-3,9,15,21-tetraisobutyl-4,10,12,16,22,24-hexamethyl-1,7,13,19-tetraoxa-4,10,16,22-tetraazacyclotetracosan-2,5,8,11,14,17,20,23-octaone] | 0.001 to 0.01 µM | ≤ 0.0001 µM
COCc1cnn(Cc2ccc(C[C@H]3OC(=O)[C@H](CC(C)C)N(C)C(=O)[C@@H](C)OC(=O)[C@H](CC(C)C)N(C)C(=O)[C@@H](Cc4ccc(Cn5cc(COC)cn5)cc4)OC(=O)[C@H](CC(C)C)N(C)C(=O)[C@@H](C)OC(=O)[C@H](CC(C)C)N(C)C3=O)cc2)c1 [Example 1b-155, (3S,6R,9S,12R,15S,18R,21S,24R)-3,9,15,21-tetraisobutyl-6,18-bis(4-((4-(methoxymethyl)-1H-pyrazol-1-yl)methyl)benzyl)-4,10,12,16,22,24-hexamethyl-1,7,13,19-tetraoxa-4,10,16,22-tetraazacyclotetracosan-2,5,8,11,14,17,20,23-octaone] | 0.001 to 0.01 µM | 0.001 to 0.01 µM
CC(C)COc1cnn(Cc2ccc(C[C@H]3OC(=O)[C@H](CC(C)C)N(C)C(=O)[C@@H](C)OC(=O)[C@H](CC(C)C)N(C)C(=O)[C@@H](Cc4ccc(Cn5cc(OCC(C)C)cn5)cc4)OC(=O)[C@H](CC(C)C)N(C)C(=O)[C@@H](C)OC(=O)[C@H](CC(C)C)N(C)C3=O)cc2)c1 [Example 1b-172, (3S,6R,9S,12R,15S,18R,21S,24R)-6,18-bis(4-((4-isobutoxy-1H-pyrazol-1-yl)methyl)benzyl)-3,9,15,21-tetraisobutyl-4,10,12,16,22,24-hexamethyl-1,7,13,19-tetraoxa-4,10,16,22-tetraazacyclotetracosan-2,5,8,11,14,17,20,23-octaone] | 0.01 to 0.1 µM | 0.001 to 0.01 µM
CC(C)C[C@H]1C(=O)O[C@H](Cc2ccc(Cn3cc(Oc4nccs4)cn3)cc2)C(=O)N(C)[C@@H](CC(C)C)C(=O)O[C@H](C)C(=O)N(C)[C@@H](CC(C)C)C(=O)O[C@H](Cc2ccc(Cn3cc(Oc4nccs4)cn3)cc2)C(=O)N(C)[C@@H](CC(C)C)C(=O)O[C@H](C)C(=O)N1C [Example 1b-174, (3S,6R,9S,12R,15S,18R,21S,24R)-3,9,15,21-tetraisobutyl-4,6,10,16,18,22-hexamethyl-12,24-bis(4-((4-(thiazol-2-yloxy)-1H-pyrazol-1-yl)methyl)benzyl)-1,7,13,19-tetraoxa-4,10,16,22-tetraazacyclotetracosan-2,5,8,11,14,17,20,23-octaone] | 0.001 to 0.01 µM | 0.001 to 0.01 µM
CC(C)C[C@H]1C(=O)O[C@H](Cc2ccc(Cn3cc(Oc4ccccn4)cn3)cc2)C(=O)N(C)[C@@H](CC(C)C)C(=O)O[C@H](C)C(=O)N(C)[C@@H](CC(C)C)C(=O)O[C@H](Cc2ccc(Cn3cc(Oc4ccccn4)cn3)cc2)C(=O)N(C)[C@@H](CC(C)C)C(=O)O[C@H](C)C(=O)N1C [Example 1b-175, (3S,6R,9S,12R,15S,18R,21S,24R)-3,9,15,21-tetraisobutyl-4,6,10,16,18,22-hexamethyl-12,24-bis(4-((4-(pyridin-2-yloxy)-1H-pyrazol-1-yl)methyl)benzyl)-1,7,13,19-tetraoxa-4,10,16,22-tetraazacyclotetracosan-2,5,8,11,14,17,20,23-octaone] | 0.001 to 0.01 µM | 0.001 to 0.01 µM
Cc1cc(C2CC2)n(Cc2ccc(C[C@H]3OC(=O)[C@H](CC(C)C)N(C)C(=O)[C@@H](C)OC(=O)[C@H](CC(C)C)N(C)C(=O)[C@@H](Cc4ccc(Cn5nc(C)cc5C5CC5)cc4)OC(=O)[C@H](CC(C)C)N(C)C(=O)[C@@H](C)OC(=O)[C@H](CC(C)C)N(C)C3=O)cc2)n1 [Example 1b-181, (3S,6R,9S,12R,15S,18R,21S,24R)-6,18-bis(4-((5-cyclopropyl-3-methyl-1H-pyrazol-1-yl)methyl)benzyl)-3,9,15,21-tetraisobutyl-4,10,12,16,22,24-hexamethyl-1,7,13,19-tetraoxa-4,10,16,22-tetraazacyclotetracosan-2,5,8,11,14,17,20,23-octaone] | 0.01 to 0.1 µM | 0.001 to 0.01 µM
